Where two headings read alike, the source gives them in different places.
What was measured:
[1] = Urine pharmacokinetics in patients (renal clearance); assay type: in vivo; conditions: human, oral, 16 patients, 0.2–22 mg dose range, day 21 of cycle 1
Source text: (§1) Quality controls, analyzed in duplicate over the validation range, and inter-assay precision, evaluated at each level in duplicate in six runs, met the performance and acceptance criteria. Noncompartmental analyses, using WinNonlin version 6.1 or higher (Pharsight, Cary, NC), in pharmacokinetic-evaluable patients were used to determine plasma and urine pharmacokinetic parameters including: Cmax, maximum plasma concentration; Tmax, time to Cmax; AUC0–τ, area under the plasma concentration–time curve over the dosing interval; CL/F, apparent clearance; t½, terminal elimination half-life; accumulation ratio; peak/trough ratio; and renal clearance.

[2] = Plasma pharmacokinetics in patients (LC-MS/MS, noncompartmental analysis); assay type: in vivo, human; conditions: for half-life / AUC / Cmax / Tmax: human, plasma; for AUC / Cmax / Tmax: po; for AUC: read-out: AUC(0-τ) Geometric mean (%CV); for Cmax: read-out: Cmax Geometric mean (%CV)
Source text: as §1

[3] = system: xenograft model; conditions: single-agent TAK-733, cited from earlier work

Cn1c(=O)c(F)c(Nc2ccc(I)cc2F)c2c(=O)n(C[C@@H](O)CO)cnc21 [TAK-733]
On-study death (N = 51): 5 (10) n (%) | Rash pustular (drug-related grade ≥ 3 AE, N = 51): 1 (2) n (%) | on-study deaths related to TAK-733 (five on-study deaths): None of the deaths were considered related to TAK-733 | AE resulting in study drug discontinuation (human, in vivo): 7 (14) n (%) | AST increased (human, in vivo): 7 (14) n (%) | Any drug-related AE (human, in vivo): 45 (88) n (%) | Decreased appetite (human, in vivo): 10 (20) n (%) | Dry skin (human, in vivo): 5 (10) n (%) | Hypophosphatemia (human, in vivo): 1 (2) n (%) | Increased AST (human, in vivo): 13 (25) n (%) | Increased CPK (human, in vivo): 10 (20) n (%) | Neuropathy peripheral (human, in vivo): 1 (2) n (%) | Pain in extremity (human, in vivo): 1 (2) n (%) | Pulmonary embolism (human, in vivo): 1 (2) n (%) | SAE: anemia (human, in vivo): 2 n | SAE: progression of metastatic melanoma (human, in vivo): 3 n | SAE: pulmonary embolism (human, in vivo): 2 n | abnormal sensation in eye (human, in vivo): 1 n | blurred vision (human, in vivo): 2 n | patients with any rash AEs (human, in vivo): 34 (67 %) patients (%) | patients with erythematous rash (human, in vivo): 1 (2 %) patients (%) | patients with exfoliative rash (human, in vivo): 1 (2 %) patients (%) | patients with macular rash (human, in vivo): 2 (4 %) patients (%) | patients with maculo-papular rash (human, in vivo): 2 (4 %) patients (%) | patients with ophthalmic AEs (eye disorders system organ class) (human, in vivo): 7 (14 %) patients (%) | patients with papular rash (human, in vivo): 2 (4 %) patients (%) | patients with pruritic rash (human, in vivo): 1 (2 %) patients (%) | patients with rash (human, in vivo): 3 (6 %) patients (%) | periorbital edema (human, in vivo): 1 n | photophobia (human, in vivo): 1 n | photopsia (human, in vivo): 2 n | retinal edema (human, in vivo): 1 n | visual impairment (human, in vivo): 3 n | cutaneous squamous cell carcinomas (in vivo): No cutaneous squamous cell carcinomas were seen | retinopathies (in vivo): absence of retinopathies | patients with pustular rash (overall, N = 51): 1 (2 %) patients (%) | CL renal [1]: 0.833 to 8.17 mL/min | CLss/F Geometric mean (%CV) ([2]; 3.2 mg oral, day 21): 3.0 (102) L/h | Rac Mean (SD) ([2]; 3.2 mg oral, day 21): 7.2 (1.5) | CLss/F Geometric mean (%CV) ([2]; 4.4 mg oral, day 21): 13.8 (29) L/h | CLss/F Geometric mean (%CV) ([2]; 6 mg oral, day 21): 6.5 (18) L/h | Rac Mean (SD) ([2]; 6 mg oral, day 21): 2.8 (1.2) | CLss/F Geometric mean (%CV) ([2]; 8.4 mg oral, day 21): 10.7 (17) L/h | Rac Mean (SD) ([2]; 8.4 mg oral, day 21): 2.5 (1.0) | CLss/F Geometric mean (%CV) ([2]; 16 mg oral, day 21): 7.4 (28) L/h | Rac Mean (SD) ([2]; 16 mg oral, day 21): 4.4 (2.6) | CLss/F Geometric mean (%CV) ([2]; 22 mg oral, day 21): 15.7 (36) L/h | Rac Mean (SD) ([2]; 22 mg oral, day 21): 1.8 (1.2) | half-life ([2]; oral, 11.8–22 mg dose range, read-out: Terminal half-life following multiple dosing): 29 to 50 h | AUC ([2]; 3.2 mg, 3.2 mg oral, day 1): 129 ng·h/mL | Cmax ([2]; 3.2 mg, 3.2 mg oral, day 1): 14.8 ng/mL | Tmax ([2]; 3.2 mg, 3.2 mg oral, day 1, read-out: Tmax Median (range)): 1.55 h | AUC ([2]; 3.2 mg, 3.2 mg oral, day 21): 1050 ng·h/mL | Cmax ([2]; 3.2 mg, 3.2 mg oral, day 21): 63 ng/mL | Tmax ([2]; 3.2 mg, 3.2 mg oral, day 21, read-out: Tmax Median (range)): 3 h | AUC ([2]; 4.4 mg, 4.4 mg oral, day 1): 98.1 ng·h/mL | Cmax ([2]; 4.4 mg, 4.4 mg oral, day 1): 11 ng/mL | Tmax ([2]; 4.4 mg, 4.4 mg oral, day 1, read-out: Tmax Median (range)): 3.5 h | AUC ([2]; 4.4 mg, 4.4 mg oral, day 21): 318 ng·h/mL | Cmax ([2]; 4.4 mg, 4.4 mg oral, day 21): 24.8 ng/mL | Tmax ([2]; 4.4 mg, 4.4 mg oral, day 21, read-out: Tmax Median (range)): 1.95 h | AUC ([2]; 6 mg, 6 mg oral, day 1): 331 ng·h/mL | Cmax ([2]; 6 mg, 6 mg oral, day 1): 26.2 ng/mL | Tmax ([2]; 6 mg, 6 mg oral, day 1, read-out: Tmax Median (range)): 4.5 h | AUC ([2]; 6 mg, 6 mg oral, day 21): 925 ng·h/mL | Cmax ([2]; 6 mg, 6 mg oral, day 21): 59.7 ng/mL | Tmax ([2]; 6 mg, 6 mg oral, day 21, read-out: Tmax Median (range)): 3 h | AUC ([2]; 8.4 mg, 8.4 mg oral, day 1): 360 ng·h/mL | Cmax ([2]; 8.4 mg, 8.4 mg oral, day 1): 28.4 ng/mL | Tmax ([2]; 8.4 mg, 8.4 mg oral, day 1, read-out: Tmax Median (range)): 3 h | AUC ([2]; 8.4 mg, 8.4 mg oral, day 21): 786 ng·h/mL | Cmax ([2]; 8.4 mg, 8.4 mg oral, day 21): 57.4 ng/mL | Tmax ([2]; 8.4 mg, 8.4 mg oral, day 21, read-out: Tmax Median (range)): 3 h | AUC ([2]; 11.8 mg, 11.8 mg oral, day 1): 299 ng·h/mL | Cmax ([2]; 11.8 mg, 11.8 mg oral, day 1): 23 ng/mL | Tmax ([2]; 11.8 mg, 11.8 mg oral, day 1, read-out: Tmax Median (range)): 3.05 h | Cmax ([2]; 11.8 mg, 11.8 mg oral, day 21): 53.2 ng/mL | Tmax ([2]; 11.8 mg, 11.8 mg oral, day 21, read-out: Tmax Median (range)): 4 h | AUC ([2]; 16 mg, 16 mg oral, day 1): 640 ng·h/mL | Cmax ([2]; 16 mg, 16 mg oral, day 1): 55.7 ng/mL | Tmax ([2]; 16 mg, 16 mg oral, day 1, read-out: Tmax Median (range)): 2.1 h | AUC ([2]; 16 mg, 16 mg oral, day 21): 2150 ng·h/mL | Cmax ([2]; 16 mg, 16 mg oral, day 21): 151 ng/mL | Tmax ([2]; 16 mg, 16 mg oral, day 21, read-out: Tmax Median (range)): 3.4 h | AUC ([2]; 22 mg, 22 mg oral, day 1): 766 ng·h/mL | Cmax ([2]; 22 mg, 22 mg oral, day 1): 60 ng/mL | Tmax ([2]; 22 mg, 22 mg oral, day 1, read-out: Tmax Median (range)): 3 h | AUC ([2]; 22 mg, 22 mg oral, day 21): 1390 ng·h/mL | Cmax ([2]; 22 mg, 22 mg oral, day 21): 105 ng/mL | Tmax ([2]; 22 mg, 22 mg oral, day 21, read-out: Tmax Median (range)): 1.05 h | Tmax ([2]; 0.2–22 mg, overall, read-out: Tmax range): 0.5 to 8.1 h | Tmax ([2]; 0.2–22 mg, read-out: overall median Tmax): 3 h | half-life ([2]; 11.8 mg oral, day 21, read-out: Terminal t½ Mean (SD) (converted)): 43 h | half-life ([2]; 16 mg oral, day 21, read-out: Terminal t½ Mean (SD) (converted)): 39.9 h | half-life ([2]; 22 mg oral, day 21, read-out: Terminal t½ Mean (SD) (converted)): 38.3 h | exposures associated with stasis in the most sensitive xenograft model [3]: 861 to 1065 ng·h/mL | time-averaged inhibition of ERK phosphorylation associated with tumor stasis ([3]; xenograft models): 76–89%
